From patent US8242280B2, “Fused ring heterocycle kinase modulators” (SGX Pharmaceuticals, Inc., priority 2007, dated 2012)

Columns and labels:
[1] = target: T1, unphosphorylated T315I Abl kinase domain (Mus musculus, UniProt P00520, T315I); experiment: c-Abl T315I 0P bioassay (pyruvate kinase/lactate dehydrogenase coupled enzyme assay); assay type: biochemical; settings: zero phosphorylation state (0P), 10 μM ATP, read-out: AbI T315I 0P IC50
T1 construct: purified and unphosphorylated T315I Abl kinase domain; made in house; host or cells: E. coli BL21(DE3) (Codon+RIL or pSA0145 strain)
T1 sequence (P00520 242-493 T315I limits assumed): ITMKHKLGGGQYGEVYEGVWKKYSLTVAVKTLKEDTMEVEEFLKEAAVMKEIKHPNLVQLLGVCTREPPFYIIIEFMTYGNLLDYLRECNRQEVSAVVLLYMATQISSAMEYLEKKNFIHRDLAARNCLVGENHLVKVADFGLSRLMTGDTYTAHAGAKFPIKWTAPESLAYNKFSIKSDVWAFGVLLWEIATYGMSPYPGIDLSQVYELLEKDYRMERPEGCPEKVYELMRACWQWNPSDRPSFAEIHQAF

Ba/F3 cells, ABL1 WT = Ba/F3 cells, ABL1 WT (Homo sapiens, UniProt P00519); experiment: 96-well XTT cell survival assay, Ba/F3 ABL1 WT; assay type: cell-based; settings: 72 hours, read-out: ABL1 WT XTT [Ba/F3] IC50
In short: (§1)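 Ba/F3 cells carrying wild-type or T315I ABL1 were seeded at 5000-8000 per well with graded compound concentrations in duplicate and grown 72 hours at 37° C. Survival was read by XTT/PMS reduction after a further 2-6 h, as absorbance at 405 nm with 650 nm background correction.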

Ba/F3 cells, ABL1 T315I = Ba/F3 cells, ABL1 T315I (Homo sapiens, UniProt P00519, T315I, cells depend on it); experiment: 96-well XTT cell survival assay, Ba/F3 ABL1 T315I; assay type: cell-based; settings: 72 hours, read-out: ABL1 T315I XTT [Ba/F3] IC50
In short: as §1

| IC50 [1] [nM] | SMILES | GI50 (Ba/F3 cells, ABL1 WT) [nM] | GI50 (Ba/F3 cells, ABL1 T315I) [nM] |
| --- | --- | --- | --- |
| < 50 | COc1ccccc1-c1n[nH]c2ncc(-c3cccc(C(O)C(=O)N4CCC(O)CC4)c3)cc12 (stereo not drawn) | > 1000 | > 1000 |
| < 50 | COc1ccccc1-c1n[nH]c2ncc(-c3cccc(C(O)C(=O)N4CCC[C@@H]4CO)c3)cc12 (stereo partly drawn) | < 1000 | < 1000 |
| < 50 | COC[C@H]1CCCN1C(=O)C(O)c1cccc(-c2cnc3[nH]nc(-c4ccccc4OC)c3c2)c1 (stereo partly drawn) | < 1000 | > 1000 |
| < 50 | COc1ccccc1-c1n[nH]c2ncc(-c3cccc([C@@H](C)O)c3)cc12 | < 1000 | < 1000 |
| < 50 | COc1ccccc1-c1n[nH]c2ncc(-c3cccc(C(C)(O)C(=O)N(C)CCN(C)C)c3)cc12 (stereo not drawn) | > 1000 | > 1000 |
| < 50 | COc1ccccc1-c1n[nH]c2ncc(-c3cccc(C(OC)C(=O)N(C)C)c3)cc12 (stereo not drawn) | < 1000 | < 1000 |
| < 50 | COc1ccccc1-c1n[nH]c2ncc(-c3cccc(C(OC)C(=O)N(C)CCN(C)C)c3)cc12 (stereo not drawn) | < 1000 | < 1000 |
| < 50 | COc1ccccc1-c1n[nH]c2ncc(-c3cccc(C(N)C(=O)N(C)C)c3)cc12 (stereo not drawn) | < 1000 | < 1000 |
| < 50 | COc1ccccc1-c1n[nH]c2ncc(-c3cccc(C(=O)C(=O)N(C)C)c3)cc12 | > 1000 | > 1000 |
| < 50 | COc1ccccc1-c1n[nH]c2ncc(-c3cccc(C(=O)C(=O)N4CC(O)C4)c3)cc12 | > 1000 | > 1000 |
| < 50 | COc1ccccc1-c1c[nH]c2ncc(-c3cccc(C(O)CN)c3)cc12 (stereo not drawn) | > 1000 | > 1000 |
| < 50 | COc1ccccc1-c1n[nH]c2ncc(-c3cccc(C(O)C(=O)N4CC(O)C4)c3)cc12 (stereo not drawn) | > 1000 | > 1000 |

The remaining lines, values behind:

| SMILES | IC50 [1] [nM] | GI50 (Ba/F3 cells, ABL1 WT) [nM] | GI50 (Ba/F3 cells, ABL1 T315I) [nM] |
| --- | --- | --- | --- |
| COc1ccccc1-c1n[nH]c2ncc(-c3cccc(C(O)C(=O)NC4CCN(C)CC4)c3)cc12 (stereo not drawn) | < 50 | > 1000 | > 1000 |
| COc1ccccc1-c1n[nH]c2ncc(-c3cccc(C(O)C(=O)N(C)C)c3)cc12 (stereo not drawn) | < 50 | < 1000 | < 1000 |
| COc1ccccc1-c1n[nH]c2ncc(-c3cccc(C(O)C(=O)N4CCC(N(C)C)C4)c3)cc12 (stereo not drawn) | < 50 | < 1000 | < 1000 |
| COc1ccccc1-c1n[nH]c2ncc(-c3cccc(C(C)O)c3)cc12 (stereo not drawn) | < 50 | < 1000 | < 1000 |
| COc1ccccc1-c1n[nH]c2ncc(-c3cccc(C(C)(O)C(=O)N(C)C)c3)cc12 (stereo not drawn) | < 50 | > 1000 | > 1000 |
| COc1ccccc1-c1n[nH]c2ncc(-c3cccc(C(C)(O)C(=O)N4CC(O)C4)c3)cc12 (stereo not drawn) | < 50 | > 1000 | > 1000 |
| COc1ccccc1-c1n[nH]c2ncc(-c3cccc(C(N)C(=O)N(C)CCN(C)C)c3)cc12 (stereo not drawn) | < 50 | > 1000 | > 1000 |
| COc1ccccc1-c1n[nH]c2ncc(-c3cccc(C(N)C(=O)N4CC(O)C4)c3)cc12 (stereo not drawn) | < 50 | > 1000 | > 1000 |
| COc1ccccc1-c1n[nH]c2ncc(-c3cccc(C(=O)C(=O)N(C)CCN(C)C)c3)cc12 | < 50 | < 1000 | < 1000 |
| COc1ccccc1-c1n[nH]c2ncc(-c3cccc(C(O)c4ncco4)c3)cc12 (stereo not drawn) | < 50 | < 1000 | > 1000 |
| COc1ccccc1-c1n[nH]c2ncc(-c3cccc(C(O)CO)c3)cc12 (stereo not drawn) | < 50 | < 1000 | > 1000 |
| CNC(=O)C(O)c1cccc(-c2cnc3[nH]nc(-c4ccccc4OC)c3c2)c1 (stereo not drawn) | < 50 | < 1000 | < 1000 |
| COc1ccccc1-c1c[nH]c2ncc(-c3cccc(C(O)C(=O)N(C)C)c3)cc12 (stereo not drawn) | < 50 | < 1000 | < 1000 |
